The numbers were not newly measured in patent US20160279057A1, “Azelastine Formulations For Intranasal Nebulization And Irrigation” (CMPD LICENSING, LLC, priority 2015, published 2016), which cites them from elsewhere.

Structures can show the parent of a compound that is named as a salt.

As to `CN1CCCC(n2nc(Cc3ccc(Cl)cc3)c3ccccc3c2=O)CC1` (stereo not drawn) [Azelastine hydrochloride, azelastine hydrochloride], where the note is “ethanol”, the solubility in ethanol result is listed as “slightly soluble”. In addition, the solubility in glycerin entry (glycerin) is on record as “slightly soluble”. The solubility in methanol result (methanol) was “sparingly soluble”. Besides, the solubility in octanol entry (octanol) was “slightly soluble”. Also, under “propylene glycol”, the “solubility in propylene glycol” value is recorded as “sparingly soluble”. Where the note is “water”, the solubility in water result is listed as “sparingly soluble”.
